Experimental findings from patent US20040156869A1, “2-substituted quinazolin-4-ylamine analogues” (Neurogen Corporation, priority 2002, published 2004) are described below.

The target in this assay is human capsaicin receptor (VR1) (Homo sapiens, UniProt Q8NER1). As to the kind of experiment: Capsaicin receptor binding assay ([3H]RTX competition, VR1-transfected HEK293 membranes).
Chain of human capsaicin receptor (VR1) (Q8NER1 whole entry): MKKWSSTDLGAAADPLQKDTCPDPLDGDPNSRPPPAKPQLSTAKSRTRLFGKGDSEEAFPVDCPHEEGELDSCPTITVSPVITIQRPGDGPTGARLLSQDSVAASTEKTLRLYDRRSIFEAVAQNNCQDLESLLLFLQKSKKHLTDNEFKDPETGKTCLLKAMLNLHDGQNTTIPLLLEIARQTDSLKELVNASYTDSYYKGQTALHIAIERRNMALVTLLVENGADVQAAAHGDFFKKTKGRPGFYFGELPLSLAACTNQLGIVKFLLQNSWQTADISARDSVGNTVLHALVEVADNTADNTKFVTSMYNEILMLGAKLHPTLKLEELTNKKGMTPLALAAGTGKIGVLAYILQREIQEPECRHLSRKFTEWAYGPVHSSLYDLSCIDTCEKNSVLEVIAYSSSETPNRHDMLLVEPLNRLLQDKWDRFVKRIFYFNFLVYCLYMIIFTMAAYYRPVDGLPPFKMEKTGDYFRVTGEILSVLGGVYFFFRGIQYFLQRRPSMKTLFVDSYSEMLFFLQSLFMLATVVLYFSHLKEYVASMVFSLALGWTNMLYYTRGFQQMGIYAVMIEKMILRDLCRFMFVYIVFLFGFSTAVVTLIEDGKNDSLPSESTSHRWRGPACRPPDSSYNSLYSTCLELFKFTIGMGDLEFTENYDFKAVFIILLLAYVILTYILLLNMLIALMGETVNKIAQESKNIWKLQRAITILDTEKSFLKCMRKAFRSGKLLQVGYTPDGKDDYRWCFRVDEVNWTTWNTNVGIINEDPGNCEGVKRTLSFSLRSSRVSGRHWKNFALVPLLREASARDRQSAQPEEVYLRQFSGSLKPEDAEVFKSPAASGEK
With `COCCCNC(=O)c1nc(Nc2ccc(C(F)(F)F)cc2)c2ccc(-c3ncccc3C(F)(F)F)nc2n1` [Compound 456, 4-(4-Trifluoromethyl-phenylamino)-7-(3-trifluoromethyl-pyridin-2-yl)-pyrido[2,3-d]pyrimidine-2-carboxylic acid (3-methoxy-propyl)-amide], the Ki (as a rule, the dissociation constant of the complex between target and ligand, obtained from inhibition or displacement) is under 1 µM.

`O=C(NCC1CCCO1)c1nc(Nc2ccc(C(F)(F)F)cc2)c2ccc(-c3ncccc3C(F)(F)F)nc2n1` (stereo not shown) [Compound 457, 4-(4-Trifluoromethyl-phenylamino)-7-(3-trifluoromethyl-pyridin-2-yl)-pyrido[2,3-d]pyrimidine-2-carboxylic acid (tetrahydro-furan-2-ylmethyl)-amide] showed a Ki of under 1 µM.

`CC(C)(C)CNC(=O)c1nc(Nc2ccc(C(F)(F)F)cc2)c2ccc(-c3ncccc3C(F)(F)F)nc2n1` [Compound 458, 4-(4-Trifluoromethyl-phenylamino)-7-(3-trifluoromethyl-pyridin-2-yl)-pyrido[2,3-d]pyrimidine-2-carboxylic acid (2,2-dimethyl-propyl)-amide] had a Ki of under 1 µM. Take `O=C(c1nc(Nc2ccc(C(F)(F)F)cc2)c2ccc(-c3ncccc3C(F)(F)F)nc2n1)N1CCCC1` [Compound 459, Pyrrolidin-1-yl-[4-(4-trifluoromethyl-phenylamino)-7-(3-trifluoromethyl-pyridifl-2-yl)-pyrido[2,3-d]pyrimidin-2-yl]-methanone]: the Ki is under 1 µM.

In the case of `O=C(c1nc(Nc2ccc(C(F)(F)F)cc2)c2ccc(-c3ncccc3C(F)(F)F)nc2n1)N1CCCCC1` [Compound 460, Piperidin-1-yl-[4-(4-trifluoromethyl-phenylamino)-7-(3-trifluorornethyl-pyridin-2-yl)-pyrido[2,3-d]pyrimidin-2-yl]-methanone], the Ki was under 1 µM.

As to `O=C(c1nc(Nc2ccc(C(F)(F)F)cc2)c2ccc(-c3ncccc3C(F)(F)F)nc2n1)N1CCOCC1` [Compound 461, Morpholin-4-yl-[4-(4-trifluoromethyl-phenylamino)-7-(3-trifluoromethyl-pyridin-2-yl)-pyrido[2,3-d]pyrimidin-2-yl]-methanone], the Ki was under 1 µM. For `CC1CCN(C(=O)c2nc(Nc3ccc(C(F)(F)F)cc3)c3ccc(-c4ncccc4C(F)(F)F)nc3n2)CC1` [Compound 462, (4-Methyl-piperidin-1-yl)-[4-(4-trifluoromethyl-phenylamino)-7-(3-trifluoromethyl-pyridin-2-yl)-pyrido[2,3-d]pyrimidin-2-yl]-methanone], the Ki was under 1 µM. The same measure for `O=C(c1nc(Nc2ccc(C(F)(F)F)cc2)c2ccc(-c3ncccc3C(F)(F)F)nc2n1)N1CCSCC1` [Compound 463, Thiomorpholin-4-yl-[4-(4-trifluoromethyl-phenylamino)-7-(3-trifluoromethyl-pyridin-2-yl)-pyrido[2,3-d]pyrimidin-2-yl]-methanone]: under 1 µM. With `C=CCN(C)C(=O)c1nc(Nc2ccc(C(F)(F)F)cc2)c2ccc(-c3ncccc3C(F)(F)F)nc2n1` [Compound 464, 4-(4-Trifluoromethyl-phenylamino)-7-(3-trifluoromethyl-pyridin-2-yl)-pyrido[2,3-d]pyrimidine-2-carboxyiic acid allyl-methyl-amide] the figure was under 1 µM; with `C=CCN(CC=C)C(=O)c1nc(Nc2ccc(C(F)(F)F)cc2)c2ccc(-c3ncccc3C(F)(F)F)nc2n1` [Compound 465, 4-(4-Trifluoromethyl-phenylamino)-7-(3-trifluoromethyl-pyridin-2-yl)-pyrido[2,3-d]pyrimidine-2-carboxylic acid diallylamide], under 1 µM. The same measure for `CCCN(CCC)C(=O)c1nc(Nc2ccc(C(F)(F)F)cc2)c2ccc(-c3ncccc3C(F)(F)F)nc2n1` [Compound 466, 4-(4-Trifluoromethyl-phenylamino)-7-(3-trifluoromethyl-pyridin-2-yl)-pyrido[2,3-d]pyrimidine-2-carboxylic acid dipropylamide]: under 1 µM; for `CN(C)C(=O)c1nc(Nc2ccc(C(F)(F)F)cc2)c2ccc(-c3ncccc3C(F)(F)F)nc2n1` [Compound 467, 4-(4-Trifluoromethyl-phenylamino)-7-(3-trifluoromethyl-pyridin-2-yl)-pyrido[2,3-d]pyrimidine-2-carboxylic acid dimethylamide]: under 1 µM. Molecule `CC1(C)CCCC(NC(=O)c2nc(Nc3ccc(C(F)(F)F)cc3)c3ccc(-c4ncccc4C(F)(F)F)nc3n2)C1` (stereo not shown) [Compound 468, 4-(4-Trifluoromethyl-phenylamino)-7-(3-trifluoromethyl-pyridin-2-yl)-pyrido[2,3-d]pyrimidine-2-carboxylic acid (3,3-dimethyl-cyclohexyl)-amide] had a Ki of under 1 µM.

As for `COCCN(CCOC)C(=O)c1nc(Nc2ccc(C(F)(F)F)cc2)c2ccc(-c3ncccc3C(F)(F)F)nc2n1` [Compound 469, 4-(4-Trifluoromethyl-phenylamino)-7-(3-trifluoromethyl-pyridin-2-yl)-pyrido[2,3-d]pyrimidine-2-carboxylic acid bis-(2-methoxy-ethyl)-amide], the Ki was under 1 µM. The molecule `CC1CC(C)CC(NC(=O)c2nc(Nc3ccc(C(F)(F)F)cc3)c3ccc(-c4ncccc4C(F)(F)F)nc3n2)C1` (stereo not shown) [Compound 470, 4-(4-Trifluoromethyl-phenylamino)-7-(3-trifluoromethyl-pyridin-2-yl)-pyrido[2,3-d]pyrimidine-2-carboxylic acid (3,5-dimethyl-cyclohexyl)-amide] gave a Ki of under 1 µM.

In turn, `CC(C)N1CCN(C(=O)c2nc(Nc3ccc(C(F)(F)F)cc3)c3ccc(-c4ncccc4C(F)(F)F)nc3n2)CC1` [Compound 471, (4-Isopropyl-piperazin-1-yl)-[4-(4-trifluoromethyl-phenylamino)-7-(3-trifluoromethyl-pyridin-2-yl)-pyrido[2,3-d]pyrimidin-2-yl]-methanone] yielded a Ki of under 1 µM. In turn, `CN1CCN(C(=O)c2nc(Nc3ccc(C(F)(F)F)cc3)c3ccc(-c4ncccc4C(F)(F)F)nc3n2)CC1` [Compound 472, (4-Methyl-piperazin-1-yl)-[4-(4-trifluoromethyl-phenylamino)-7-(3-trifluoromethyl-pyridin-2-yl)-pyrido[2,3-d]pyrimidin-2-yl]-methanone] came in with a Ki of under 1 µM. On to `O=C(c1nc(Nc2ccc(C(F)(F)F)cc2)c2ccc(-c3ncccc3C(F)(F)F)nc2n1)N1CCN(C2CCCC2)CC1` [Compound 473, (4-Cyclopentyl-piperazin-1-yl)-[4-(4-trifluoromethyl-phenylamino)-7-(3-trifluoromethyl-pyridin-2-yl)-pyrido[2,3-d]pyrimidin-2-yl]-methanone], for which the Ki is under 1 µM.

`O=C(c1nc(Nc2ccc(C(F)(F)F)cc2)c2ccc(-c3ncccc3C(F)(F)F)nc2n1)N1CCN(C2CCCCCC2)CC1` [Compound 474, (4-Cycloheptyl-piperazin-1-yl)-[4-(4-trifluoromethyl-phenylamino)-7-(3-trifluoromethyl-pyridin-2-yl)-pyrido[2,3-d]pyrimidin-2-yl]-methanone] had an inhibition constant Ki of under 1 µM. The same measure for `CC(C)(C)c1ccc(Nc2nc(CN3CCCC3)nc3cc(-c4ncccc4C(F)(F)F)ccc23)cc1` [Compound 475, (4-tert-Butyl-phenyl)-[2-pyrrolidin-1-ylmethyl-7-(3-trifluoromethyl-pyridin-2-yl)-quinazolin-4-yl]-amine]: under 1 µM; for `CC(C)(C)c1ccc(Nc2nc(CN3CCCCC3)nc3cc(-c4ncccc4C(F)(F)F)ccc23)cc1` [Compound 476, (4-tert-Butyl-phenyl)-[2-piperidin-1-ylmethyl-7-(3-trifluoromethyl-pyridin-2-yl)-quinazolin-4-yl]-amine]: under 1 µM; for `O=C(CCc1nc(Nc2ccc(C(F)(F)F)cc2)c2ccc(-c3ncccc3C(F)(F)F)cc2n1)N1CCCC1` [Compound 478, 1-Pyrrolidin-1-yl-3-[4-(4-trifluoromethyl-phenylamino)-7-(3-trifluoromethyl-pyridin-2-yl)-quinazolin-2-yl]-propan-1-one]: under 1 µM.

The molecule `OCCC1CCN(Cc2nc(Nc3ccc(C(F)(F)F)nc3)c3ccc(-c4ncccc4C(F)(F)F)cc3n2)CC1` [Compound 481, 2-{1-[7-(3-Trifluoromethyl-pyridin-2-yl)-4-(6-trifluoromethyl-pyridin-3-ylamino)-quinazolin-2-ylmethyl]-piperidin-4-yl}-ethanol] returned a Ki of under 1 µM. Consider `OCC1CCN(Cc2nc(Nc3ccc(C(F)(F)F)nc3)c3ccc(-c4ncccc4C(F)(F)F)cc3n2)CC1` [Compound 482, {1-[7-(3-Trifluoromethyl-pyridin-2-yl)-4-(6-trifluoromethyl-pyridin-3-ylamino)-quinazolin-2-ylmethyl]-piperidin-4-yl}-methanol], for which the Ki is under 1 µM. The same measure for `CCOC(=O)N1CCN(Cc2nc(Nc3ccc(C(F)(F)F)nc3)c3ccc(-c4ncccc4C(F)(F)F)cc3n2)CC1` [Compound 483, 4-[7-(3-Trifluoromethyl-pyridin-2-yl)-4-(6-trifluoromethyl-pyridin-3-ylamino)-quinazolin-2-ylmethyl]-piperazine-1-carboxylic acid ethyl ester]: under 1 µM; for `OC1CCN(Cc2nc(Nc3ccc(C(F)(F)F)nc3)c3ccc(-c4ncccc4C(F)(F)F)cc3n2)CC1` [Compound 484, 1-[7-(3-Trifluoromethyl-pyridin-2-yl)-4-(6-trifluoromethyl-pyridin-3-ylamino)-quinazolin-2-ylmethyl]-piperidin-4-ol]: under 1 µM; for `CC1CCCN(Cc2nc(Nc3ccc(C(F)(F)F)nc3)c3ccc(-c4ncccc4C(F)(F)F)cc3n2)C1` (stereo not shown) [Compound 485, [2-(3-Methyl-piperidin-1-ylmethyl)-7-(3-trifluoromethyl-pyridin-2-yl)-quinazolin-4-yl]-(6-trifluoromethyl-pyridin-3-yl)-amine]: under 1 µM. For `OC1CCCN(Cc2nc(Nc3ccc(C(F)(F)F)nc3)c3ccc(-c4ncccc4C(F)(F)F)cc3n2)C1` (stereo not shown) [Compound 486, 1-[7-(3-Trifluoromethyl-pyridin-2-yl)-4-(6-trifluoromethyl-pyridin-3-ylamino)-quinazolin-2-ylmethyl]-piperidin-3-ol], the Ki is under 1 µM.
